Data published in publication PMC5750218, “Protein-inspired antibiotics active against vancomycin- and daptomycin-resistant bacteria” (Nature Communications, 2018).
In brackets after ≈: the same amount, converted by molar mass.

What was measured:
[1] = test system: S. aureus ATCC 43300 (MRSA); experiment: Time kill assay; assay type: cell-based, Staphylococcus aureus
Description: S. aureus ATCC® 43300™ (MRSA) was cultured in MHB (BactoLaboratories, Cat. No 211443) at 37 °C overnight. A sample was then diluted 40-fold in fresh MHB and incubated at 37 °C for 2–3 h until the culture reached early exponential phase (OD600 of 0.2–0.4). Vancapticin 24 ([…] and 0.003 µg mL^−1) and vancomycin (4, 2, 1 and 0.5 µg mL^−1) were serially diluted twofold across the wells of 96-well microtitre plates (NBS, Corning 3641) with a final volume of 50 µL, then combined with 50 µL of bacterial inoculum (giving a final cell density of 5 × 10^5 CFU mL^−1) and incubated at 37 °C. Serial dilutions of the cultures were plated at each desired time point, using a multichannel pipette as follows: in row A of a 96-well plate, 50 µL of sterile activated charcoal suspension (25 mg mL^−1) was added, while 90 µL of 0.9% sterile saline per well was added to the other rows. At selected time-points, 50 µL aliquots were transferred from the time-kill assay plate to the first row containing the charcoal suspension and mixed well. […] The colonies in each spot were counted and used to calculate the number of viable CFU mL^−1 remaining in the original culture by considering the dilution factors (1:2 in charcoal, the serial dilution factor and the volume of the aliquot spotted).

[2] = test system: S. pneumoniae (ATCC 6301); experiment: S. pneumoniae lung infection in vivo efficacy model (mice); design: species or system Streptococcus pneumoniae; conditions: 25 mg kg^−1 SC qd, 10 days
Description: The study objective was to evaluate the antimicrobial activity of test articles in a lung infection model with S. pneumoniae (ATCC® 6301™). Male ICR mice were inoculated intratracheally (IT) with S. pneumoniae at an inoculum size of 2.96 × 10^6 CFU per mouse (20 µL per mouse). […] The reference standard, vancomycin 1, was dosed at 25 mg kg^−1 qd SC at 2 h after IT inoculation. […] An increase in survival rate of 50 percent or more ( ≥ 50%) of the treated animals relative to the vehicle group indicates significant antimicrobial activity.
Test substances at 25 mg kg^−1 were each administered subcutaneously (SC) to test animals 2 h after inoculation. The dosing volume was 10 mL kg^−1.
Vehicle (10 mL kg^−1), vancomycin and test substances at 25 mg kg^−1 were each administered subcutaneously 2 h post-infection. Mortality was recorded daily for 10 days following inoculation. Increase of 50 percent or more (≥ 50%) in survival rate relative to the vehicle control group indicates significant anti-infective activity.

[3] = test system: S. aureus (MRSA) ATCC 43300; experiment: Resistance frequency assay; assay type: cell-based; conditions: Staphylococcus aureus; TSB 1% agarose, 0.002% Tween 80; read-out: Agarose plate MIC
Description: The resistance frequency for Compound 19 was determined following literature procedures[41], [42].
Compound 19 was prepared to 160 µg mL^−1 solution in water from the given stock solution of 1 mM concentration. Vancomycin was prepared to 1.28 mg mL^−1 solution in water.
Tryptic soy broth (TSB) with 1% agarose and 0.002% Tween 80 was maintained at 45 to 50 °C in a water bath. 160 mL of agarose was transferred to 200 mL glass bottle, maintaining the remaining agarose in the water bath. […] A volume of 80 mL of agarose sample [A] was plated in four petri plates (duplicates/condition—neat, 10^−1) with swirling to ensure that the bottom of the plate was coated equally. An additional 80 mL of fresh agarose was added to the remaining 80 mL of agarose [A] sample to achieve a twofold dilution to provide agarose sample [B]. Once again, 80 mL of agarose sample [B] was plated in four petri plates. […]
Bacteria were subcultured at 37 °C overnight with shaking at 220 rpm. […] Resultant separated visible colonies were counted; those colonies that grow together were not included to determine the titre of the culture. […]
The colonies were counted after 24 h. The resistance frequency is determined by dividing the number of colonies obtained on the plates containing the antibacterial agent by the number of cells plated.

[4] = SPR membrane binding assay; conditions: L1 chip, DMPC / DMPG bilayers
Description: SPR experiments were performed using a BIAcore 3000 (GE Health) instrument with a Biacore vesicle capture L1 sensor chip. […] Small unilamellar vesicles (SUV) were prepared in phosphate buffered saline (PBS) (pH 7.4) by sonication and extrusion. […] PBS was then added into each flask to give a suspension, which was sonicated for 5 cycles of 5 min each. […] The SUVs were injected across the L1 sensor chip for 30 min at a flow rate of […] to form a supported lipid bilayer. The coverage of the lipid bilayer was determined from the extent of non-specific binding of bovine serum albumin (0.1 mg mL^-1 in PBS, 5 min injection). A series of concentrations of vancomycin and […] passed sequentially over the different phospholipid-containing flow cells at a flow rate of 30 μL min^-1 for 180 s. The amount of antibiotic bound at equilibrium just before the end of the injection was corrected by subtraction of the bulk-refractive index difference observed at the beginning and the end of each injection. After each injection cycle, the lipid surface was regenerated with 20 mM 3-[(3-cholamidopropyl)dimethylammonio]-1-propanesulfonate (CHAPS) and a fresh lipid bilayer was loaded as described above. All assays were carried out at 25 °C in triplicate. […]

MRSA (ATCC 43300) = conditions: 20 days, increasing sub-lethal concentrations
Description: A resistance induction assay was conducted for vancomycin, daptomycin, compound 17 and compound 24 [43].
S. aureus ATCC®43300™ was grown in Mueller Hinton broth supplemented with 50 µg mL^−1 of CaCl2. The bacterial culture was incubated at 37 °C in a shaker at 195 rpm.
The mid log S. aureus growth culture was serially diluted and plated on a solid LB agar plates in quadruplicates and incubated at 37 °C overnight to determine viable colony count.
The initial determination of the compound MICs were taken from the literature and empirically measured. […] The plate was then incubated at 37 °C overnight.
After overnight incubation, the growth of the S. aureus (MRSA) culture was determined by reading at OD600 on the Epoch microplate spectrophotometer and 0.1 OD600 was the chosen cut-off determining growth vs. no growth.

HepG2 cells = experiment: Cytotoxicity MTT assay; assay type: cell-based, human
HEK293 cells = experiment: Cytotoxicity MTT assay; assay type: cell-based, human
Summary of the method: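 Duplicate wells were used, with viability calculated against untreated and positive-control wells. Readout was MTT reduction: 2 h with 0.4 mg mL^−1 MTT, formazan dissolved in DMSO, absorbance at 570 nm. Before that, compound was applied 24 h at 37 °C over 100–0.046 µM (threefold dilutions) to HepG2 or HEK293 cells seeded 24 h earlier in DMEM/1% FBS.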

## CN[C@H](CC(C)C)C(=O)N[C@H]1C(=O)N[C@@H](CC(N)=O)C(=O)N[C@H]2C(=O)N[C@H]3C(=O)N[C@H](C(=O)N[C@H](C(=O)O)c4cc(O)cc(O)c4-c4cc3ccc4O)[C@H](O)c3ccc(c(Cl)c3)Oc3cc2cc(c3O[C@@H]2O[C@H](CO)[C@@H](O)[C@H](O)[C@H]2O[C@H]2C[C@](C)(N)[C@H](O)[C@H](C)O2)Oc2ccc(cc2Cl)[C@H]1O [Compound 1, Vancomycin]
[1]
  Bactericidal profile in time kill assay: slowly bactericidal
[2]
  survival rate relative to the vehicle control: ≥ 50%
[3]
  MIC: 1 µg/mL (≈ 0.69 µM)

## CCCCCCCCCCCCCC(=O)N[C@@H](CCCCN)C(=O)N[C@@H](CCCCN)C(=O)N[C@@H](CCCCN)C(=O)N[C@@H](CCCCNC(=O)[C@H]1NC(=O)[C@H]2NC(=O)[C@H](NC(=O)[C@@H]3NC(=O)[C@H](CC(N)=O)NC(=O)[C@H](NC(=O)[C@@H](CC(C)C)NC)[C@H](O)c4ccc(c(Cl)c4)Oc4cc3cc(c4O[C@@H]3O[C@H](CO)[C@@H](O)[C@H](O)[C@H]3O[C@H]3C[C@](C)(N)[C@H](O)[C@H](C)O3)Oc3ccc(cc3Cl)[C@H]2O)c2ccc(O)c(c2)-c2c(O)cc(O)cc21)C(=O)O [Compound 17, nC13CO-KKK-K(Vancomycin)-OH]
[4]
  Membrane association by SPR compared to vancomycin: Increased membrane association
MRSA (ATCC 43300)
  Induced resistance on serial culture: low levels of resistance compared to daptomycin

## CN[C@H]1C(=O)N[C@@H]2Cc3ccc(cc3)Oc3cc4cc(c3O[C@@H]3O[C@H](C(=O)O)[C@@H](O)[C@H](O)[C@H]3NC(=O)CCCCCCCCC(C)C)Oc3ccc(cc3Cl)[C@@H](O)[C@@H]3NC(=O)[C@H](NC(=O)[C@@H]4NC(=O)[C@@H](NC2=O)c2cc(cc(O)c2Cl)Oc2cc1ccc2O)c1ccc(O)c(c1)-c1c(O[C@H]2O[C@H](CO)[C@@H](O)[C@H](O)[C@@H]2O)cc(O)cc1[C@@H](C(=O)NCCCN(C)C)NC3=O [Compound 3, Dalbavancin]
HepG2 cells
  CC50: 259 µM
HEK293 cells
  CC50: 73 µM
